Measurements reported in patent US8895561B2, “Compounds and methods for treating candidiasis and aspergillus infections” (Cellceutix Corporation, priority 2012, dated 2014).
Converted amounts (≈) assume the structure as drawn. Where two headings read alike, the source gives them in different places.

Columns and labels:
Type in all cases: cell-based
C. albicans GDH2346 [1] = assay: Candida IC50, vegetative cells, by OD600 and fluorescence; details: for IC50: Candida albicans, GDH2346
Protocol: (§1) Candida IC50s were determined by OD600 and fluorescence from vegetative cells and by MTS viability assay in the hyphal state. MICs were determined using a broth microdilution assay under standard CLSI conditions Bacteria strains: E. coli 25922 (EC), S. aureus 27660 (SA), E. faecalis 29212 (EF), P. aeruginosa 10145 (PA), and K. pneumoniae 13883 (KP). Cytotoxicity (EC50) was determined against mouse 3T3 fibroblasts, human transformed liver HepG2 cells, and human oral keratinocyte cell line, OKF6/TERT using an MTS viability assay. Candida IC50s<10 μg/mL, MICs<5 μg/mL and cytotoxicity EC50s>100 μM are indicated in green. MICs>5 μg/mL and cytotoxicity EC50s<100 μM are indicated in red. Candida IC50s (CA) were determined by OD600 and fluorescence from vegetative cells. MICs were determined using a broth microdilution assay under standard CLSI conditions Bacteria strains: E. coli 25922 (EC), S. aureus 27660 (SA), E. faecalis 29212 (EF), P. aeruginosa 10145 (PA), and K. pneumoniae 13883 (KP). Cytotoxicity (EC50) was determined against mouse 3T3 fibroblasts and human transformed liver HepG2 cells using an MTS viability assay. For determination of anti-Candida IC50s, the method was modified by using RPMI/MOPS buffer pH 6.3 and by addition of FDGlu, a substrate for the yeast enzyme exoglucanase which is secreted during cell growth. This provides a fluorescent readout for cell growth which was used in addition to the traditional optical density measure of growth. OD600 and fluorescence were determined at 24 and 48 hours and the average of all 4 reads was used for the final IC50 determination.

[2] = system: C. albicans GDH2346 hyphal biofilm; assay: Candida IC50 in the hyphal state / hyphal biofilm, MTS viability assay; details: for IC50: Candida albicans
Protocol: Candida IC50s were determined by OD600 and fluorescence from vegetative cells and by MTS viability assay in the hyphal state. MICs were determined using a broth microdilution assay under standard CLSI conditions Bacteria strains: E. coli 25922 (EC), S. aureus 27660 (SA), E. faecalis 29212 (EF), P. aeruginosa 10145 (PA), and K. pneumoniae 13883 (KP). Cytotoxicity (EC50) was determined against mouse 3T3 fibroblasts, human transformed liver HepG2 cells, and human oral keratinocyte cell line, OKF6/TERT using an MTS viability assay. Candida IC50s<10 μg/mL, MICs<5 μg/mL and cytotoxicity EC50s>100 μM are indicated in green. MICs>5 μg/mL and cytotoxicity EC50s<100 μM are indicated in red. To form the biofilm, yeast were grown in RPMI/MOPS, 0.4% sucrose pH7.4 media supplemented with 10% FBS in tissue culture-treated flat bottom 96 well plates for 48 hours. The filamentous yeast cultures were then vigorously washed to remove any non-filamentous, non-attached yeast. The remaining attached filamentous biofilm yeast were incubated in saline containing serially diluted compounds for 24 hours. The cultures were aspirated to remove compound, rinsed and overlayed with RPMI/MOPS, 0.4% sucrose pH7.4 media. Biofilm viability was measured using a cell proliferation assay (CellTiter96 Aqueous Kit from Promega) and IC50s were determined using Prism GraphPad software (nonlinear fit, Table 3).

E. coli 25922 = assay: Bacterial MIC, broth microdilution, CLSI
Protocol: as §1, with “assay.” for “assay. For determination of anti-Candida IC50s, the method was modified by using RPMI/MOPS buffer pH 6.3 and by addition of FDGlu, a substrate for the yeast enzyme exoglucanase which is secreted during cell growth. This provides a fluorescent readout for cell growth which was used in addition to the traditional optical density measure of growth. OD600 and fluorescence were determined at 24 and 48 hours and the average of all 4 reads was used for the final IC50 determination.”

E. faecalis 29212 = assay: Bacterial MIC, broth microdilution, CLSI
Protocol: as §1, with “assay.” for “assay. For determination of anti-Candida IC50s, the method was modified by using RPMI/MOPS buffer pH 6.3 and by addition of FDGlu, a substrate for the yeast enzyme exoglucanase which is secreted during cell growth. This provides a fluorescent readout for cell growth which was used in addition to the traditional optical density measure of growth. OD600 and fluorescence were determined at 24 and 48 hours and the average of all 4 reads was used for the final IC50 determination.”

K. pneumoniae 13883 = assay: Bacterial MIC, broth microdilution, CLSI; details: Klebsiella pneumoniae
Protocol: as §1, with “assay.” for “assay. For determination of anti-Candida IC50s, the method was modified by using RPMI/MOPS buffer pH 6.3 and by addition of FDGlu, a substrate for the yeast enzyme exoglucanase which is secreted during cell growth. This provides a fluorescent readout for cell growth which was used in addition to the traditional optical density measure of growth. OD600 and fluorescence were determined at 24 and 48 hours and the average of all 4 reads was used for the final IC50 determination.”

P. aeruginosa 10145 = assay: Bacterial MIC, broth microdilution, CLSI
Protocol: as §1, with “assay.” for “assay. For determination of anti-Candida IC50s, the method was modified by using RPMI/MOPS buffer pH 6.3 and by addition of FDGlu, a substrate for the yeast enzyme exoglucanase which is secreted during cell growth. This provides a fluorescent readout for cell growth which was used in addition to the traditional optical density measure of growth. OD600 and fluorescence were determined at 24 and 48 hours and the average of all 4 reads was used for the final IC50 determination.”

S. aureus 27660 = assay: Bacterial MIC, broth microdilution, CLSI
Protocol: as §1, with “assay.” for “assay. For determination of anti-Candida IC50s, the method was modified by using RPMI/MOPS buffer pH 6.3 and by addition of FDGlu, a substrate for the yeast enzyme exoglucanase which is secreted during cell growth. This provides a fluorescent readout for cell growth which was used in addition to the traditional optical density measure of growth. OD600 and fluorescence were determined at 24 and 48 hours and the average of all 4 reads was used for the final IC50 determination.”

[3] = system: human transformed liver HepG2 cells; assay: Cytotoxicity, MTS viability assay
Protocol: (§2) Candida IC50s were determined by OD600 and fluorescence from vegetative cells and by MTS viability assay in the hyphal state. MICs were determined using a broth microdilution assay under standard CLSI conditions Bacteria strains: E. coli 25922 (EC), S. aureus 27660 (SA), E. faecalis 29212 (EF), P. aeruginosa 10145 (PA), and K. pneumoniae 13883 (KP). Cytotoxicity (EC50) was determined against mouse 3T3 fibroblasts, human transformed liver HepG2 cells, and human oral keratinocyte cell line, OKF6/TERT using an MTS viability assay. Candida IC50s<10 μg/mL, MICs<5 μg/mL and cytotoxicity EC50s>100 μM are indicated in green. MICs>5 μg/mL and cytotoxicity EC50s<100 μM are indicated in red.
(§3) Candida IC50s (CA) were determined by OD600 and fluorescence from vegetative cells. MICs were determined using a broth microdilution assay under standard CLSI conditions Bacteria strains: E. coli 25922 (EC), S. aureus 27660 (SA), E. faecalis 29212 (EF), P. aeruginosa 10145 (PA), and K. pneumoniae 13883 (KP). Cytotoxicity (EC50) was determined against mouse 3T3 fibroblasts and human transformed liver HepG2 cells using an MTS viability assay.
(§4) CLSI conditions Bacteria strains: clinical isolates; yeast strains: C. dubliniensis (NCPF3949), C. glabrata (ATCC 90030), C. krusei (ATCC 6258), C. parapsilosis (ATCC 22019), and C. tropicalis (ATCC 750). Cytotoxicity (EC50) was determined against mouse 3T3 fibroblasts, human transformed liver HepG2 cells, and human oral keratinocyte cell line, OKF6/TERT using an MTS viability assay.

mouse 3T3 fibroblasts = assay: Cytotoxicity, MTS viability assay
Protocol: as §2, §3, §4

[4] = system: human oral keratinocyte cell line, OKF6/TERT; assay: Cytotoxicity, MTS viability assay
Protocol: as §2, §4

C. albicans GDH2346 [5] = assay: Candida MIC, CLSI M27-A3; details: Table 5; for MIC: Candida albicans, GDH2346, read-out: MIC C. albicans
Protocol: (§5) Candida MIC assays were determined in accordance with CLSI guidelines M27-A3 using a clinically isolated C. albicans strain, GDH2346.50% human serum was added to determine activity in the presence of serum.

[6] = system: C. dubliniensis (NCPF3949); assay: Yeast MIC; details: Table 5; for MIC: Candida dubliniensis, NCPF3949, read-out: MIC C. dubliniensis
Protocol: as §5, §4

C. glabrata (ATCC 90030) = assay: Yeast MIC; details: Table 5; for MIC: Nakaseomyces glabratus, ATCC90030, read-out: MIC C. glabrata
Protocol: as §5, §4

C. krusei (ATCC 6258) = assay: Yeast MIC; details: for MIC: Pichia kudriavzevii, ATCC6258
Protocol: as §5, §4

[7] = system: C. parapsilosis (ATCC 22019); assay: Yeast MIC; details: for MIC: Lodderomyces parapsilosis, ATCC22019
Protocol: as §5, §4

C. tropicalis (ATCC 750) = assay: Yeast MIC; details: for MIC: Candida tropicalis, ATCC750
Protocol: as §5, §4

A. viscosis = assay: Commensal bacteria MIC, broth microdilution
Protocol: (§6) Bacterial MICs were determined using a broth microdilution assay under standard
as §4

S. salivarius = assay: Commensal bacteria MIC, broth microdilution; details: for MIC: Streptococcus salivarius
Protocol: as §6, §4

[8] = vegetative cultures, read-out: Anti-C. albicans GDH2346 Vegetative (IC50)
[9] = 48 h, 2-day hyphal biofilm cultures, read-out: Anti-C. albicans GDH2346 Hyphal (IC50)

Row | Structure (SMILES) | IC50 (C. albicans GDH2346 [1]; [8]) | IC50 [2, 9] | MIC (C. albicans GDH2346 [5]) | MIC [6] | MIC (C. glabrata (ATCC 90030)) | MIC (C. krusei (ATCC 6258)) | MIC [7] | MIC (C. tropicalis (ATCC 750)) | MIC (A. viscosis) | MIC (S. salivarius) | Anti-C. albicans GDH2346 Vegetative (IC50) (C. albicans GDH2346 [1]; vegetative cultures) | MIC C. albicans (C. albicans GDH2346 [5]) | MIC C. dubliniensis [6] | MIC C. glabrata (C. glabrata (ATCC 90030)) | MIC C. krusei (C. krusei (ATCC 6258)) | MIC C. parapsilosis [7] | MIC C. tropicalis (C. tropicalis (ATCC 750)) | MIC A. viscosis (A. viscosis) | MIC S. salivarius (S. salivarius) | further results
1 | NCCCOc1cccc(-n2cc(-c3ccc4ccc(-c5cn(-c6cccc(OCCCN)c6)nn5)cc4c3)nn2)c1 [Compound 138] |  |  |  |  |  |  |  |  |  |  |  |  |  |  |  |  |  |  |  | IC50 (C. albicans GDH2346 [1]; vegetative cells, read-out: IC50 Candida, Vegetative): 4.1 µg/mL (≈ 7.31 µM); IC50 ([2]; hyphal state, read-out: IC50 Candida, Hyphal): 7.5 µg/mL (≈ 13.4 µM); EC50 (E. coli 25922; Escherichia coli, E. coli 25922): > 50 µg/mL; EC50 (E. faecalis 29212; Enterococcus faecalis, E. faecalis 29212): > 50 µg/mL; EC50 (K. pneumoniae 13883): > 50 µg/mL; EC50 (P. aeruginosa 10145; Pseudomonas aeruginosa, P. aeruginosa 10145): > 50 µg/mL; EC50 (S. aureus 27660; Staphylococcus aureus, S. aureus 27660): > 50 µg/mL; IC50 ([3]; Homo sapiens, HepG2, cytotoxicity): 502 µM; IC50 (mouse 3T3 fibroblasts; Mus musculus, NIH3T3, cytotoxicity): 406 µM; IC50 [4]: 491 µM
2 | NCCCn1c2cc(-c3ccc(CCN)c(CCN)c3)ccc2c2ccc(-c3ccc(CCN)c(CCN)c3)cc21 [Compound 159] |  |  |  |  |  |  |  |  |  |  |  |  |  |  |  |  |  |  |  | CA (Candida IC50) (C. albicans GDH2346 [1]; vegetative cells): 2.11 µg/mL; EC (MIC) (E. coli 25922): 0.78 µg/mL; EF (MIC) (E. faecalis 29212): 3.13 µg/mL; PA (MIC) (P. aeruginosa 10145): 6.25 µg/mL; SA (MIC) (S. aureus 27660): 0.78 µg/mL; EC50 [3]: 64 µM; EC50 (mouse 3T3 fibroblasts): 61 µM
3 | N=C(N)NCCc1cccc(-c2ccc(-c3cccc(CCNC(=N)N)c3)s2)c1 [Compound 185] | 1.09 µg/mL (≈ 2.68 µM) | 1 µg/mL (≈ 2.46 µM) | 2 µg/mL (≈ 4.92 µM) | 2 µg/mL (≈ 4.92 µM) | 2 µg/mL (≈ 4.92 µM) | 2 µg/mL (≈ 4.92 µM) | 2 µg/mL (≈ 4.92 µM) | 0.5 µg/mL (≈ 1.23 µM) | 4 µg/mL (≈ 9.84 µM) | 8 µg/mL (≈ 19.7 µM) |  |  |  |  |  |  |  |  |  | 
4 | N=C(N)NCCc1cccc(-c2ccc(-c3cccc(CCNC(=N)N)c3)cc2)c1 [Compound 186] | 1.03 µg/mL (≈ 2.57 µM) | 1.4 µg/mL (≈ 3.5 µM) | 2 µg/mL (≈ 4.99 µM) | 2 µg/mL (≈ 4.99 µM) | 2 µg/mL (≈ 4.99 µM) | 2 µg/mL (≈ 4.99 µM) | 2 µg/mL (≈ 4.99 µM) | 0.5 µg/mL (≈ 1.25 µM) | 4 µg/mL (≈ 9.99 µM) | 8 µg/mL (≈ 20 µM) |  |  |  |  |  |  |  |  |  | 
5 | N=C(N)NCCc1cccc(-c2ccc(-c3cccc(CCNC(=N)N)c3)o2)c1 [Compound 187] |  |  |  |  |  |  |  |  |  |  | 2.20 µg/mL | 2 µg/mL (≈ 5.12 µM) | 4 µg/mL (≈ 10.2 µM) | 4 µg/mL (≈ 10.2 µM) | 4 µg/mL (≈ 10.2 µM) | 4 µg/mL (≈ 10.2 µM) | 0.5 µg/mL (≈ 1.28 µM) | 8 µg/mL (≈ 20.5 µM) | 32 µg/mL (≈ 81.9 µM) | 
6 | N=C(N)NCCc1cccc(-c2cnc(-c3cccc(CCNC(=N)N)c3)s2)c1 [Compound 188] |  |  |  |  |  |  |  |  |  |  | 2.08 µg/mL | 2 µg/mL (≈ 4.91 µM) | 4 µg/mL (≈ 9.81 µM) | 4 µg/mL (≈ 9.81 µM) | 4 µg/mL (≈ 9.81 µM) | 4 µg/mL (≈ 9.81 µM) | 0.5 µg/mL (≈ 1.23 µM) | 16 µg/mL (≈ 39.3 µM) | 64 µg/mL (≈ 157 µM) | Anti-C. albicans GDH2346 Hyphal (IC50) ([2]; 2-day hyphal biofilm cultures): 2.22 µg/mL
